Laboratory results reported in US11492331B2, “Redox substrates for leukocyte esterase” (THE BOARD OF REGENTS OF THE UNIVERSITY OF TEXAS SYSTEM, priority 2017, dated 2022).
Values after ≈ are worked out from the molar mass of the structure shown. Where a name gives a salt, the structure may show the parent alone.

Assays:
leukocyte esterase (LE) [1] = test: Kinetics of reaction with LE by ICECEA (Michaelis-Menten); format: biochemical, human; settings: 6.0 nM LE; for Km / kcat: 1-40 μM compound, PBS pH 7.40, 21° C.; for kcat Km^−1: PBS pH 7.40, Table 2
Experimental: FIG. 2. Michaelis-Menten plots for 6.0 nM LE and 1-40 μM compound: (a) I, (b) II, and (c) III, in PBS (pH 7.40). The solid lines represent the best fit to the experimental points based on the nonlinear regression.
The properties of compounds I-III as LE substrates were further investigated by determining their kinetics of reaction with LE (reaction 1). The initial rate of reaction 1 was measured by ICECEA at a constant LE concentration (cLE=6.0 nM; MW=29 kDa) and under the condition of cLE<<ccompound I-III(ccompound I-III=1-40 μM). The assays were conducted within a linear range of calibration plot for HQ at a GC electrode. One unit (U) of LE activity was defined as the amount of enzyme that catalyzed the hydrolysis of 1.0 μmole of a compound I-III per minute in a PBS solution at room temperature (21° C.). The LE activity (U L^−1) was calculated from the equation
[formula] where AS is an assay slope equal to the slope of rising I-t segment and CS is a calibration slope calculated from the I-t steps of ICECEA traces similar to those shown in FIG. 1. […] The analysis of such plots using the Michaelis-Menten kinetics yielded the Michaelis constants Km and turnover numbers kcat, which are shown in Table 1.

[2] = tested on: leukocyte esterase (LE) of white blood cell (WBC) suspensions; test: Electrochemical LE assay (ICECEA) of human leukocyte suspensions; format: biochemical; settings: for Average activity of single WBC: 100 μM substrate, pH 7.40 PBS, 0.40 V, from slopes of FIG. 3
Experimental: FIG. 3. Dependence of LE activity on the white blood cell (WBC) count in leukocyte suspensions determined by using ICECEA and compound: (a) I, (b) II, and (c) III. Assay solution, 100 μM substrate I, II, or III in a pH 7.40 PBS solution. Concentration of HQ calibration spikes, 0.54 μM. Dilution factor, 100×. Potential, 0.40 V.
Finally, the compounds I-III were tested in the development of electrochemical LE assay using the ICECEA. The assay was optimized with respect to the detection potential, sample dilution factor, and solution composition (pH, concentration). Such assay was used to determine the esterolytic activity of a series of human leukocyte suspensions. […] Accordingly, the average esterolytic activity of single WBC calculated using the slopes of plots in FIG. 3 was the highest when determined using a compound III (Table 2).
Preparation of Leukocyte Suspensions. The original suspension of leukocytes was diluted 10 times with a PBS solution that contained 10 vol. % DMSO and left for 30 min on a shaker table at 60 rpm to lyse the leukocytes chemically. Such a suspension preserved a constant esterolytic activity for at least 5 days when stored in a refrigerator at 4° C. It was used as a solution C (vide infra) for the ICECEA.

[3] = Solubility in water by UV-visible spectrophotometry; format: physicochemical; settings: thermodynamic from solid, room temperature (21° C.), A270
Experimental: Solubility. The solubility of compounds I-III was determined by UV-visible spectrophotometry. The compounds were dissolved in water at room temperature (21° C.) to make a series of solutions with increasing concentration. The solutions were stirred continuously and their spectra were recorded until steady-state equilibrium was reached. Below the solubility limit, the steady-state background-corrected absorbance of solution at 270 nm (A270) was directly proportional to the compound concentration as expected by the Beer-Lambert law. Above the solubility limit, the absorbance steadily levelled off. The low- and high-concentration regions of plots A270 vs. compound concentration were linearized and extrapolated to a crossing point, which was taken as the solubility of compound.

leukocyte esterase (LE) [4] = test: ICECEA test of recognition of compounds by LE as substrates (release of hydroquinone); format: biochemical, human; settings: 60 μg mL^−1 compound, 86.7 μg L^−1 LE protein, pH 7.40 PBS, 0.40 V
Experimental: FIGS. 1A-B. (A) ICECEA I-t trace recorded at 0.40 V in a stirred pH 7.40 assay solution containing a tested compound. Each current step is due to the addition of hydroquinone calibrating aliquot to a solution. […] Otherwise, this segment was flat. (B) ICECEA current-time (I-t) traces recorded at a GC electrode in a stirred assay solution of compound (a) I, (b) II, (c) III. Trace # is for a precursor 1 to compounds I-III (Scheme 2). Arrows indicate the addition of 50 μL aliquots of hydroquinone (HQ) and leukocyte esterase (LE) to generate 0.54 μM HQ and 86.7 μg L^−1 LE protein in a solution. Assay solution, pH 7.40 PBS solution containing 60 μg mL^−1 of compound I-III or precursor 1. Traces were overlaid and shortened to show only the linear portion of ascending I-t segments. Potential, 0.40 V.
The initial electrochemical tests were performed to assess a degree of the recognition of compounds I-III by LE as its substrates. […]
The ICECEA was conducted by using phosphate buffer saline (PBS) solutions (pH 7.40, 154 mM NaCl) that contained either a tested compound, HQ, or LE. The current flowing through the GC electrode was measured while spiking 5.00 mL of a stirred assay solution of tested compound with triplicate aliquots of HQ solution and an aliquot of LE solution (FIG. 1). […]

| Compound | Km (leukocyte esterase (LE) [1]) | kcat (leukocyte esterase (LE) [1]) | kcat Km^−1 (leukocyte esterase (LE) [1]) | Average activity of single WBC [2] | solubility [3] | detection limit of LE assay ([2]; human leukocyte suspensions, ICECEA) | recognition by LE as substrate (rising I-t segment after LE addition) (leukocyte esterase (LE) [4]) |
| --- | --- | --- | --- | --- | --- | --- | --- |
| C[C@H](NS(=O)(=O)c1cccnc1)C(=O)Oc1ccc(OC(=O)[C@H](C)NS(=O)(=O)c2cccnc2)cc1 [Compound I, 4-(((pyridin-3-ylsulfonyl)-L-alanyl)oxy)phenyl (pyridin-3-ylsulfonyl)-L-alaninate] | 12 µM | 3.2 s⁻¹ | 270000 M⁻¹ s⁻¹ | 0.8 nU | 50 µg/mL (≈ 93.5 µM) |  |  |
| COc1ccc(S(=O)(=O)N[C@@H](C)C(=O)Oc2ccc(OC(=O)[C@H](C)NS(=O)(=O)c3ccc(OC)nc3)cc2)cn1 [Compound II, 4-((((6-methoxypyridin-3-yl)sulfonyl)-L-alanyl)oxy)phenyl ((6-methoxypyridin-3-yl)sulfonyl)-L-alaninate] | 14 µM | 5.3 s⁻¹ | 380000 M⁻¹ s⁻¹ | 1.5 nU | 500 µg/mL (≈ 841 µM) |  |  |
| COC(=O)c1cncc(S(=O)(=O)N[C@@H](C)C(=O)Oc2ccc(OC(=O)[C@H](C)NS(=O)(=O)c3cncc(C(=O)OC)c3)cc2)c1 [Compound III, methyl 5-{[(2S)-1-(4-{[(2S)-2-[5-(methoxycarbonyl)pyridine-3-sulfonamido]propanoyl]oxy}phenoxy)-1-oxopropan-2-yl]sulfamoyl}pyridine-3-carboxylate] | 11 µM | 6.4 s⁻¹ | 580000 M⁻¹ s⁻¹ | 4.5 nU | 4000 µg/mL (≈ 6150 µM) | 20 WBC μL^−1 |  |
| C[C@H](N)C(=O)Oc1ccc(OC(=O)[C@H](C)N)cc1 [precursor 1, 1,4-phenylene (2S,2′S)-bis(2-aminopropanoate)-bis hydrochloride] |  |  |  |  |  |  | no rising I-t segment |
